# “Also recorded” adds a separate entry of the source.
# Experiments:
# [1] = rat, in vivo
# Protocol: Methods: Rats were given an i.p. injection of XA 50 mg/kg and then sacrificed 30 minutes later by microwave irradiation. Brains were dissected and XA was assayed in 20 different regions of the brain.
# [2] = test system: xanthurenic acid binding site(s); assay: [3H]-XA binding to synaptic membranes, without ions; parameters: species or system rat
# [3] = biological target: xanthurenic acid binding site(s); assay: [3H]-XA binding to synaptic membranes in the presence of copper ions; parameters: species or system rat; details: pH 6.5
# [4] = test system: xanthurenic acid receptor(s); format: cell-based
# rat [5] = assay: Open field test of global reactivity (XA); details: in vivo
# rat [6] = assay: Social interactions between two congeners; details: in vivo
# Excerpt: This tendency was confirmed by a test evaluating social interactions between two congeners (Ramos et al., Behav. Brain Res., 1997, 85: 57–69).
# rat [7] = assay: Porsolt test (swimming test); details: in vivo
# Protocol: The following doses were used: 50, 100, 150 and 200 mg/kg i.p.
# This test has been validated with imipramine 30 mg/kg. The test described by Porsolt et al., Eur. J. Pharmacol. 1978, 47: 379–391, was used.
# rat [8] = assay: Object recognition test; details: in vivo
# Protocol: Ennaceur and Delacour, Behav. Brain Res. 1988, 31: 47–59.
# Doses of 37.5 and 75 mg/kg i.p. were used.
# rat [9] = assay: Dopaminergic stereotypies after intracerebral injection; details: in vivo
# Protocol: The product was injected by the intracerebroventricular route (i.c.v.) on the one hand, and in defined brain structures on the other hand: ventral tegmental area (A10), substantia nigra (A9) or nucleus accumbens. […] After disappearance of the stereotypies (30±15 minutes), reinjection of XA induced the same effects.
# The following stereotypies are observed: licking, chewing, hyperactivity, exploring, standing, grooming, burrowing, stretching and sniffing.
# These behaviors developed two minutes after the intracerebral injection and lasted for 30 to 40 minutes. One hour after such behaviors disappeared, they could be re-induced by another injection.
# rat [10] = assay: Rotations in rats with unilateral 6-OHDA lesions; format: in vivo; details: rat, in vivo
# rat [11] = assay: Reversal of XA-induced sedation in the open field test; details: in vivo
# Protocol: Study of reversal of sedation induced by XA 100 mg/kg i.p
# rat [12] = details: in vivo
# rat [13] = details: in vivo; cited from earlier work
# [14] = in vivo, ip; cited from earlier work
# rat [15] = details: in vivo; cited from earlier work; remark: listed apart in the source
# mice = details: mouse, in vivo; cited from earlier work
# [16] = test system: Grp 94 and calreticulin expression; details: cited from earlier work
# [17] = read-out: IC50, two site binding model, first site
# [18] = read-out: IC50, two site binding model, second site
smiles,measurement,setting,value
"O=C(O)c1cc(O)c2cccc(O)c2n1 [XA, xanthurenic acid]",Brain regions where XA accumulated,[1],"accumulated primarily in the frontal and prefrontal cortex (PFC), temporal and parietal cortex, amygdala, dopaminergic nuclei and in the striatum"
same,kob (observed association rate),[2]; pH 7.4,0.53 ± 0.16 min⁻¹
same,time to binding equilibrium,[2]; pH 7.4,10 to 15 min
same,Kd,"[2]; pH 7.4, read-out: Kd (saturation experiment)",743 nM
same,IC50,[2]; [17],0.3 µM
same,IC50,[2]; [18],57 µM
same,Kd,[2]; read-out: Kd=koff/kon,~330 nM
same,IC50,[3]; [17],1 µM
same,IC50,[3]; [18],114 µM
same,Kd,[3]; read-out: Kd (saturation experiment),7.56 µM
same,factor of increase of current amplitude at the peak of the transient current,[4],5 factor
same,"factor of increase of current amplitude, on average",[4],5.0±1.7 factor
same,"inversion potential, onset of the response",[4],−16.5 mV
same,"inversion potential, second phase of the response",[4],−4.2 mV
same,mean outflux current,[4],considerably increased
same,doses to obtain an anxiolytic effect in animals,rat [5],less than 50 mg/kg
same,exploration of the center of the cage / open field,rat [5],significantly increased; also recorded: promotes movement of the animal to the center of the lighted open field
same,sedation in the open field test,rat [5],absence of sedation
same,duration of social interactions,rat [6],significant increase in the duration of social interactions; also recorded: induces an increase in the duration of social interactions
same,sedation in the social interaction test,rat [6],significant sedative effect
same,cumulative duration of immobility,rat [7],statistically significant decrease in the cumulative duration of immobility; also recorded: duration of immobility decreases with increasing doses
same,object recognition score,rat [8],significant increase in the object recognition score
same,stereotypies,rat [9],dose-related stereotypies were observed; also recorded: induced dose-dependent stereotypies
same,time to disappearance of the stereotypies,rat [9],30 ± 15 min
same,controlateral rotations induced by apomorphine,rat [10],did not antagonize; also recorded: did not modify the number of controlateral rotations
same,ipsilateral rotations induced by amphetamine,rat [10],had no effect
same,Grooming,rat [11],4 ± 2
same,Inner squares,rat [11],19 ± 6
same,Outer squares,rat [11],91 ± 17
same,Standing,rat [11],37 ± 14
same,Total squares,rat [11],110 ± 25
same,amplitude of the EEG waves,rat [12],reduction in the amplitude of the EEG waves
same,decrease in body temperature,rat [12],−0.5 to −2 °C
same,analgesic effect in hotplate and tail flick tests,rat [13],analgesic effect
same,latency time to onset of epileptic seizures,[14],prolonged the latency time to onset of epileptic seizures
same,ECG,rat [15],does not modify the ECG
same,head twitch behavior,mice,does not induce head twitch behavior
same,expression of Grp 94 and of calreticulin,[16],induces an increase in the expression
same,xanthurenic acid concentrations required to produce these effects,[16],in the millimolar range

# — patent US7122326B2 (Universite Louis Pasteur, priority 2001, dated 2006)
